# What was measured:
# Wee1 kinase domain = target: T1, Wee1 kinase domain (Homo sapiens, UniProt P30291); experiment: Wee1 Kinase Biochemical Assay (ADP-Glo); conditions: Wee1 kinase domain, 15 uM ATP, ADP-Glo
# T1 construct: Wee1 kinase domain was purchased from Carna (catalog #05-177); purchased Carna 05-177
# Method in brief: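 ADP-Glo luminescence readout of ADP produced by 1 nM kinase domain phosphorylating Poly(Lys,Tyr 4:1) (2 ng/mL) at 15 uM ATP. Reaction ran 4 h, 25 °C, in Tris/MgCl2 buffer with BSA and DTT. Inhibition scaled between DMSO (high) and saturating control inhibitor (low).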
# [1] = test system: phosphorylation of Cdc2 Y15 (Wee1 substrate) in A427 cells; experiment: Phosphorylated Cdc2 MSD Electrochemiluminescence Assay; assay type: cell-based; conditions: Homo sapiens, A-427, pCDC2 MSD
# Method in brief: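 Read-out: percent residual phospho-Cdc2 Y15 relative to DMSO and positive-control Wee1 inhibitor, measured by MSD electrochemiluminescence capture/detection antibody assay in cell lysates. A427 cells received duplicate 3-fold compound dilution series 20 h post-seeding, with 6 h total incubation at 37 °C.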
# T1 sequence (P30291 299-569 limits assumed): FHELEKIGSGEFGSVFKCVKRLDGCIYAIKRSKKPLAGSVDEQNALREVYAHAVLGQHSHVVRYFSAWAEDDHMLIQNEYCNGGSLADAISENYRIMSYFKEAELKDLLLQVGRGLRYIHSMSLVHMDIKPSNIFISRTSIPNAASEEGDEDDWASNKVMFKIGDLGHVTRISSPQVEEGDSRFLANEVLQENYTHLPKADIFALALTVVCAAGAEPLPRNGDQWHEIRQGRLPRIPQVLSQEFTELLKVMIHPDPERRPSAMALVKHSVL
IC50 (Wee1 kinase domain),IC50 [1],SMILES
< 0.01 µM,0.1 to 1 µM,"C[C@H]1COC(=O)N1c1cccc(N2c3nc(Nc4ccc(O[C@@H]5CCNC5)cc4)ncc3[C@@]3(C)COC(C)(C)C[C@@H]23)n1 (single isomer, unassigned) [Example 327]"
< 0.01 µM,0.1 to 1 µM,"C[C@H]1COC(=O)N1c1cccc(N2c3nc(Nc4ccc(O[C@H]5CCNC5)cc4)ncc3[C@@]3(C)COC(C)(C)C[C@@H]23)n1 (single isomer, unassigned) [Example 329]"
< 0.01 µM,0.1 to 1 µM,"C[C@H]1COC(=O)N1c1cccc(N2c3nc(Nc4ccc(O[C@@H]5CCN(C)C5)cc4)ncc3[C@@]3(C)COC(C)(C)C[C@@H]23)n1 (single isomer, unassigned) [Example 331]"
< 0.01 µM,0.1 to 1 µM,"C[C@H]1COC(=O)N1c1cccc(N2c3nc(Nc4ccc(O[C@H]5CCN(C)C5)cc4)ncc3[C@@]3(C)COC(C)(C)C[C@@H]23)n1 (single isomer, unassigned) [Example 333]"
< 0.01 µM,< 0.1 µM,"C[C@H]1COC(=O)N1c1cccc(N2c3nc(Nc4ccc(OC5CCN(C)CC5)nc4)ncc3[C@@]3(C)COC(C)(C)C[C@@H]23)n1 (single isomer, unassigned) [Example 335]"
< 0.01 µM,0.1 to 1 µM,"Cc1cc(Nc2ncc3c(n2)N(c2cccc(N4C(=O)OC[C@@H]4C)n2)[C@@H]2CC(C)(C)OC[C@]32C)ccc1O[C@@H]1CCNC1 (single isomer, unassigned) [Example 337]"
< 0.01 µM,0.1 to 1 µM,"Cc1cc(Nc2ncc3c(n2)N(c2cccc(N4C(=O)OC[C@@H]4C)n2)[C@@H]2CC(C)(C)OC[C@]32C)ccc1O[C@H]1CCNC1 (single isomer, unassigned) [Example 339]"
< 0.01 µM,0.1 to 1 µM,"C[C@H]1COC(=O)N1c1cccc(N2c3nc(Nc4ccn(C)c(=O)c4)ncc3[C@@]3(C)COC(C)(C)C[C@@H]23)n1 (single isomer, unassigned) [Example 341]"
< 0.01 µM,0.1 to 1 µM,"C[C@H]1COC(=O)N1c1cccc(N2c3nc(Nc4ccc(OC5CNC5)nc4)ncc3[C@@]3(C)COC(C)(C)C[C@@H]23)n1 (single isomer, unassigned) [Example 343]"
< 0.01 µM,0.1 to 1 µM,"Cc1cc(Nc2ncc3c(n2)N(c2cccc(N4C(=O)OC[C@@H]4C)n2)[C@@H]2CC(C)(C)OC[C@]32C)ccc1O[C@H]1CCN(C)C1 (single isomer, unassigned) [Example 345]"
< 0.01 µM,0.1 to 1 µM,"Cc1cc(Nc2ncc3c(n2)N(c2cccc(N4C(=O)OC[C@@H]4C)n2)[C@@H]2CC(C)(C)OC[C@]32C)ccc1O[C@@H]1CCN(C)C1 (single isomer, unassigned) [Example 347]"
< 0.01 µM,0.1 to 1 µM,"C[C@H]1COC(=O)N1c1cccc(N2c3nc(Nc4ccc([C@@]5(C)CCN(C)C5)cc4)ncc3[C@@]3(C)COC(C)(C)C[C@@H]23)n1 (single isomer, unassigned) [Example 349]"
< 0.01 µM,< 0.1 µM,"C[C@H]1COC(=O)N1c1cccc(N2c3nc(Nc4ccc([C@]5(C)CCN(C)C5)cc4)ncc3[C@@]3(C)COC(C)(C)C[C@@H]23)n1 (single isomer, unassigned) [Example 351]"
< 0.01 µM,0.1 to 1 µM,"C[C@H]1COC(=O)N1c1cccc(N2c3nc(Nc4ccc(N5CC6(CN(C)C6)C5)cc4)ncc3[C@@]3(C)COC(C)(C)C[C@@H]23)n1 (single isomer, unassigned) [Example 355]"
< 0.01 µM,0.1 to 1 µM,"CNCc1ccc(Nc2ncc3c(n2)N(c2cccc(N4C(=O)OC[C@@H]4C)n2)[C@@H]2CC(C)(C)OC[C@]32C)cc1 (single isomer, unassigned) [Example 360]"
< 0.01 µM,0.1 to 1 µM,"Cn1ccc(Nc2ncc3c(n2)N(c2cccc(N=S(C)(C)=O)n2)[C@@H]2CC(C)(C)OC[C@]32C)cc1=O (single isomer, unassigned) [Example 363]"
< 0.01 µM,0.1 to 1 µM,"Cc1ccc(Nc2ncc3c(n2)N(c2cccc(N=S(C)(C)=O)n2)[C@@H]2CC(C)(C)OC[C@]32C)nn1 (single isomer, unassigned) [Example 364]"
< 0.01 µM,1 to 10 µM,"Cn1nc(Nc2ncc3c(n2)N(c2cccc(N=S(C)(C)=O)n2)[C@@H]2CC(C)(C)OC[C@]32C)ccc1=O (single isomer, unassigned) [Example 365]"
< 0.01 µM,1 to 10 µM,"CC1(C)C[C@H]2N(c3cccc(N=S(C)(C)=O)n3)c3nc(Nc4cnccn4)ncc3[C@@]2(C)CO1 (single isomer, unassigned) [Example 366]"
< 0.01 µM,0.1 to 1 µM,"CC1(C)C[C@H]2N(c3cccc(N=S(C)(C)=O)n3)c3nc(Nc4cncc(F)c4)ncc3[C@@]2(C)CO1 (single isomer, unassigned) [Example 369]"
< 0.01 µM,0.1 to 1 µM,"Cc1cc(Nc2ncc3c(n2)N(c2cccc(N=S(C)(C)=O)n2)[C@@H]2CC(C)(C)OC[C@]32C)cnn1 (single isomer, unassigned) [Example 370]"
< 0.01 µM,0.1 to 1 µM,"Cc1cnc(Nc2ncc3c(n2)N(c2cccc(N=S(C)(C)=O)n2)[C@@H]2CC(C)(C)OC[C@]32C)cn1 (single isomer, unassigned) [Example 371]"
< 0.01 µM,0.1 to 1 µM,"COc1ccc(Nc2ncc3c(n2)N(c2cccc(N=S(C)(C)=O)n2)[C@@H]2CC(C)(C)OC[C@]32C)nn1 (single isomer, unassigned) [Example 372]"
< 0.01 µM,0.1 to 1 µM,"Cc1ncc(Nc2ncc3c(n2)N(c2cccc(N=S(C)(C)=O)n2)[C@@H]2CC(C)(C)OC[C@]32C)cn1 (single isomer, unassigned) [Example 373]"
< 0.01 µM,0.1 to 1 µM,"CC1(C)C[C@H]2N(c3cccc(N=S(C)(C)=O)n3)c3nc(Nc4ccn(C(F)F)c(=O)c4)ncc3[C@@]2(C)CO1 (single isomer, unassigned) [Example 374]"
< 0.01 µM,0.1 to 1 µM,"CC1(C)C[C@H]2N(c3cccc(N=S(C)(C)=O)n3)c3nc(Nc4ccn([C@@H]5CCOC5)c(=O)c4)ncc3[C@@]2(C)CO1 (single isomer, unassigned) [Example 375]"
< 0.01 µM,0.1 to 1 µM,"CC1(C)C[C@H]2N(c3cccc(N=S(C)(C)=O)n3)c3nc(Nc4ccn([C@H]5CCOC5)c(=O)c4)ncc3[C@@]2(C)CO1 (single isomer, unassigned) [Example 376]"
< 0.01 µM,1 to 10 µM,"CC1(C)C[C@H]2N(c3cccc(N=S(C)(C)=O)n3)c3nc(Nc4ccc(C(F)F)nn4)ncc3[C@@]2(C)CO1 (single isomer, unassigned) [Example 377]"
< 0.01 µM,0.1 to 1 µM,"[2H]C([2H])([2H])n1ccc(Nc2ncc3c(n2)N(c2cccc(N=S(C)(C)=O)n2)[C@@H]2CC(C)(C)OC[C@]32C)cc1=O (single isomer, unassigned) [Example 378]"
< 0.01 µM,0.1 to 1 µM,"CC1(C)C[C@H]2N(c3cccc(N=S(C)(C)=O)n3)c3nc(Nc4ccn5ccnc5c4)ncc3[C@@]2(C)CO1 (single isomer, unassigned) [Example 379]"

SMILES,IC50 (Wee1 kinase domain),IC50 [1]
"C[C@H]1COC(=O)N1c1cccc(N2c3nc(Nc4ccc(N5C[C@H]6C[C@@H](C5)N6C)cc4)ncc3[C@@]3(C)COC(C)(C)C[C@@H]23)n1 (single isomer, unassigned) [Example 352]",< 0.01 µM,0.1 to 1 µM

# Source: US20260166039A1 (SCHRÖDINGER, INC., priority 2022, published 2026)
